# Experimental data from ChEMBL document CHEMBL5209587, “Membrane potential based assay for SLC23A1 using HEK-293 SLC23A1 OE cells” (2022).
# Molecular target: Solute carrier family 23 member 1 (Homo sapiens) (UniProt Q9UHI7)
# Assay: Substrate uptake and inhibition of the Na(+)/L-Ascorbic Acid Transporter 1 (SVCT1, SLC23A1) as assessed by the fluorescent FLIPR membrane potential dye in HEK-293 JumpIN-SLC23A1 cells (PubChem AID: 1794810)
# Assay type: functional, cell-based
# Conditions: HEK293
# Sequence of Solute carrier family 23 member 1 (Homo sapiens) (Q9UHI7 whole entry): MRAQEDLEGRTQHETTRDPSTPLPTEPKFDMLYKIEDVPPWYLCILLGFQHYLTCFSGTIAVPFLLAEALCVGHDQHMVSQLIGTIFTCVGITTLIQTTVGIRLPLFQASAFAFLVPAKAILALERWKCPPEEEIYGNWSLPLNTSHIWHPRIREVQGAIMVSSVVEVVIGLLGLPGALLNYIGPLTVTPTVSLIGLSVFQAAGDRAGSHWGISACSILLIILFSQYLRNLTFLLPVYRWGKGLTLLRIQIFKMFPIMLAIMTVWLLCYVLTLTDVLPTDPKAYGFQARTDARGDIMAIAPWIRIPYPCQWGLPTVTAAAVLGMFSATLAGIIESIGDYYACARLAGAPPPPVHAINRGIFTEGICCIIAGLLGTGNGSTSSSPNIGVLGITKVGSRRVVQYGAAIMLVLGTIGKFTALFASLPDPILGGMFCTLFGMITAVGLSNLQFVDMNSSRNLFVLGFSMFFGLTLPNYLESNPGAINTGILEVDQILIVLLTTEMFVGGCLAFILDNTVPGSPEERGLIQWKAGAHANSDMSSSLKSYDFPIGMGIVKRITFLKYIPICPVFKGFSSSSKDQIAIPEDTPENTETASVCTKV
smiles,measurement,value
O=C(CCc1ccc(O)cc1)c1c(O)cc(O)cc1O,inhibition,Inhibitor: Almost Complete Inhibition At A Concentration Of 300 Μm
